Laboratory results from patent US12458020B2, “Synergistic herbicidal mixtures and compositions comprising triclopyr and phosphate ester adjuvants” (SBM Développement SAS, priority 2019, dated 2025).

How the values were obtained:
[1] = test system: English ivy (Hedera helix); assay: Field trial of triclopyr plus phosphate ester adjuvants on English ivy plots (Example 2); assay type: in vivo; conditions: triclopyr by itself, 0.55% w/v; single application
Experimental: The objective of the trial was to measure the effects of adjuvants in the same class of chemistry in the control of the evasive weed species English ivy (Hedera helix). The trial was conducted in a recreational setting at a golf course. Plots were 2×2 meters and the treatments consisted of triclopyr in the form of BioAdvanced Brush Killer Plus® 8.8% triclopyr mixed to a 0.55% w/v concentration for all the treatments, and various adjuvants treated at 0.5% ai/v (i.e., % w/v of the active ingredient) (Table 2). Controls included an untreated check group. All treatments and controls were repeated in triplicate (i.e., three plots per group). The plots were treated at the standard rate of 2 gal of mixed product per 1000 square feet. The plots were rated for the percent English Ivy in each plot. […] Trial was observed over time for the presence of English ivy in each plot.

[2] = test system: brush (e.g., poison ivy, poison oak, black berries, etc.); assay: Field trial of residual control of brush, rated as bare ground (Example 3); assay type: in vivo; conditions: triclopyr alone at 0.275, 0.55 and 0.8% ai/v
Experimental: The objective of the trial was to determine the effects of concentration and adjuvant on triclopyr and its residual control of brush. The trial was conducted in a recreational setting at a golf course. Plots were 1×1 meters and the treatments comprised BioAdvanced Brush Killer Plus® (8.8% triclopyr) mixed to 0.275% ai/v with various adjuvants treated at 0.1% ai/v (i.e., % weight of the active ingredient per volume) (Table 3), Controls included an untreated check group and triclopyr alone at three concentrations (0.275, 0.55, and 0.8% ai/v). All treatments and controls were repeated in triplicate (i.e., three plots per group). The plots were treated at the standard rate of 2 gal of mixed product per 1000 square feet. The plots were rated for the percent of brush (e.g., poison ivy, poison oak, black berries, etc.) in each plot. […] The observations were based upon the amount of clear area (without vegetation) in each plot.

SMILES: O=C(O)COc1nc(Cl)c(Cl)cc1Cl [triclopyr, 3,5,6-Trichloro-2-pyridinyloxyacetic acid]
- control of the English ivy [1]: about 53%
- residual efficacy on brush as a function of triclopyr concentration [2]: the higher the concentration of the triclopyr the longer the residual efficacy
